Results from ChEMBL document CHEMBL1687880, “Synthesis of cell-permeable stapled peptide dual inhibitors of the p53-Mdm2/Mdmx interactions via photoinduced cycloaddition” (Bioorg Med Chem Lett, 2011).
Calls of active or inactive are those of the source. No cut-off for these calls is given here. Non-standard residues stand in square brackets, D forms with d. Residues, ends and D or L forms follow the SMILES beside them. *: point of attachment. Tetrazole5CO(2-(4-MeOPh)) = COc1ccc(-n2nnc(C(=O)*)n2)cc1; Trp(6-Cl) = N[C@@H](Cc1c[nH]c2cc(Cl)ccc12)C(=O)O; X1 = COc1ccc(N2N=C(C(=O)*)CC2C(N)=O)cc1; Methacryloyl = C=C(C)C(=O)*

Target: E3 ubiquitin-protein ligase Mdm2 (Homo sapiens, UniProt Q00987)
Sequence (Q00987 whole entry): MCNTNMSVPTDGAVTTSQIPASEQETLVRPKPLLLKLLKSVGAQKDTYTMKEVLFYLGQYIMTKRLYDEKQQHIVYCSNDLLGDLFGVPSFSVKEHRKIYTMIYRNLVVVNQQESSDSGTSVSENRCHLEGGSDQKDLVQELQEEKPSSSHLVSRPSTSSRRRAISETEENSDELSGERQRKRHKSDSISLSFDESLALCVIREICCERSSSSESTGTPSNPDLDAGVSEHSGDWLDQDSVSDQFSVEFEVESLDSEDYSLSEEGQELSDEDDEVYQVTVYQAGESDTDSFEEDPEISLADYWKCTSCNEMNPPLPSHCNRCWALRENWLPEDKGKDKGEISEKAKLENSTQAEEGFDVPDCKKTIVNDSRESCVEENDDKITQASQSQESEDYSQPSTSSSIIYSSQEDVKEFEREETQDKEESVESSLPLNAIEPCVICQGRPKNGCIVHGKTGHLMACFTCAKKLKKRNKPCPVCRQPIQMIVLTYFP
Experiment: Inhibition of human GST-tagged Mdm2 expressed in Escherichia coli harboring integrated p53-Mmd2 protein assessed as blockade of enzyme-p53 interaction by ELISA assay

Compound	IC50 [nM]
CC(=O)NCCCC[C@H](NC(=O)[C@H](Cc1ccccc1)NC(=O)[C@@H](NC(=O)[C@H](CC(C)C)NC(C)=O)[C@@H](C)O)C(=O)N[C@@H](Cc1cnc[nH]1)C(=O)N[C@@H](Cc1ccc(O)cc1)C(=O)N[C@@H](Cc1c[nH]c2ccccc12)C(=O)N[C@@H](C)C(=O)N[C@@H](CCC(N)=O)C(=O)N[C@@H](CC(C)C)C(=O)N[C@H](C(=O)N[C@@H](CO)C(N)=O)[C@@H](C)O	< 10
CC(=O)NCCCC[C@H](NC(=O)[C@H](CC(C)C)NC(=O)[C@H](CCC(N)=O)NC(=O)[C@H](C)NC(=O)[C@H](Cc1c[nH]c2ccccc12)NC(=O)[C@H](Cc1ccc(O)cc1)NC(=O)[C@H](Cc1cnc[nH]1)NC(=O)[C@H](CCC(=O)O)NC(=O)[C@H](Cc1ccccc1)NC(=O)[C@@H](NC(=O)[C@H](CC(C)C)NC(C)=O)[C@@H](C)O)C(=O)N[C@@H](CO)C(N)=O	< 48
Ac-LTFEHYWAK(Ac)LTS-NH2	< 48
Ac-LTFEHYWK(Ac)QLTS-NH2	< 31

Test system: U2OS
Experiment: Drug uptake in human U2OS cells at 20 uM after 4 hrs by fluorescence microscopy
Type: ADME, cell-based

Compound	Drug uptake
C=C(C)C(=O)NCCCC[C@H](NC(=O)[C@H](Cc1ccccc1)NC(=O)[C@@H](NC(=O)[C@H](CC(C)C)NC(C)=O)[C@@H](C)O)C(=O)N[C@@H](Cc1cnc[nH]1)C(=O)N[C@@H](Cc1ccc(O)cc1)C(=O)N[C@@H](Cc1c[nH]c2ccccc12)C(=O)N[C@@H](C)C(=O)N[C@@H](CCCN=C(N)N)C(=O)N[C@@H](CC(C)C)C(=O)N[C@@H](CCCCNC(=O)c1nnn(-c2ccc(OC)cc2)n1)C(=O)N[C@@H](CO)C(N)=O	Active
C=C(C)C(=O)NCCCC[C@H](NC(=O)[C@H](Cc1ccccc1)NC(=O)[C@@H](NC(=O)[C@H](CC(C)C)NC(C)=O)[C@@H](C)O)C(=O)N[C@@H](Cc1cnc[nH]1)C(=O)N[C@@H](Cc1ccc(O)cc1)C(=O)N[C@@H](Cc1c[nH]c2ccccc12)C(=O)N[C@@H](CCCN=C(N)N)C(=O)N[C@@H](CCC(N)=O)C(=O)N[C@@H](CC(C)C)C(=O)N[C@@H](CCCCNC(=O)c1nnn(-c2ccc(OC)cc2)n1)C(=O)N[C@@H](CO)C(N)=O	Active
COc1ccc(N2N=C(C(=O)NCCCC[C@H](NC(=O)[C@H](CC(C)C)NC(=O)[C@H](CCC(N)=O)NC(=O)[C@H](CCCNC(=N)N)NC(=O)[C@H](Cc3c[nH]c4ccccc34)NC(=O)[C@H](Cc3ccc(O)cc3)NC(=O)[C@H](CCCNC(=N)N)NC(=O)[C@H](CCCCNC(C)=O)NC(=O)[C@H](Cc3ccccc3)NC(=O)[C@@H](NC(=O)[C@H](CC(C)C)NC(C)=O)[C@@H](C)O)C(=O)N[C@@H](CO)C(N)=O)CC2C(N)=O)cc1 (some centres not stated) (Ac-LTFK(Ac)RYWRQLK(X1)S-NH2)	Active
C=C(C)C(=O)NCCCC[C@H](NC(=O)[C@H](Cc1ccccc1)NC(=O)[C@@H](NC(=O)[C@H](CC(C)C)NC(C)=O)[C@@H](C)O)C(=O)N[C@@H](CCCN=C(N)N)C(=O)N[C@@H](Cc1ccc(O)cc1)C(=O)N[C@@H](Cc1c[nH]c2ccccc12)C(=O)N[C@@H](C)C(=O)N[C@@H](CCCN=C(N)N)C(=O)N[C@@H](CC(C)C)C(=O)N[C@@H](CCCCNC(=O)c1nnn(-c2ccc(OC)cc2)n1)C(=O)N[C@@H](CO)C(N)=O (Ac-LTFK(Methacryloyl)RYWARLK(Tetrazole5CO(2-(4-MeOPh)))S-NH2)	Active
C=C(C)C(=O)NCCCC[C@H](NC(=O)[C@H](Cc1ccccc1)NC(=O)[C@@H](NC(=O)[C@H](CC(C)C)NC(C)=O)[C@@H](C)O)C(=O)N[C@@H](CCCNC(=N)N)C(=O)N[C@@H](Cc1ccc(O)cc1)C(=O)N[C@@H](Cc1c[nH]c2ccccc12)C(=O)N[C@@H](CCCNC(=N)N)C(=O)N[C@@H](CCC(N)=O)C(=O)N[C@@H](CC(C)C)C(=O)N[C@@H](CCCCNC(=O)c1nnn(-c2ccc(OC)cc2)n1)C(=O)N[C@@H](CO)C(N)=O (Ac-LTFK(Methacryloyl)RYWRQLK(Tetrazole5CO(2-(4-MeOPh)))S-NH2)	Active
C=C(C)C(=O)NCCCC[C@H](NC(=O)[C@H](Cc1ccccc1)NC(=O)[C@@H](NC(=O)[C@H](CC(C)C)NC(C)=O)[C@@H](C)O)C(=O)N[C@@H](CCCN=C(N)N)C(=O)N[C@@H](Cc1ccc(O)cc1)C(=O)N[C@@H](Cc1c[nH]c2cc(Cl)ccc12)C(=O)N[C@@H](CCCN=C(N)N)C(=O)N[C@@H](CCC(N)=O)C(=O)N[C@@H](CC(C)C)C(=O)N[C@@H](CCCCNC(=O)c1nnn(-c2ccc(OC)cc2)n1)C(=O)N[C@@H](CO)C(N)=O (Ac-LTFK(Methacryloyl)RY[Trp(6-Cl)]RQLK(Tetrazole5CO(2-(4-MeOPh)))S-NH2)	Active

Test system: U2OS
Experiment: Induction of p53-dependent luciferase activity in human U2OS cells at 20 uM
Type: functional, cell-based

Compound	Activity
COc1ccc(N2N=C(C(=O)NCCCC[C@H](NC(=O)[C@H](CC(C)C)NC(=O)[C@H](CCC(N)=O)NC(=O)[C@H](CCCNC(=N)N)NC(=O)[C@H](Cc3c[nH]c4ccccc34)NC(=O)[C@H](Cc3ccc(O)cc3)NC(=O)[C@H](CCCNC(=N)N)NC(=O)[C@H](CCCCNC(C)=O)NC(=O)[C@H](Cc3ccccc3)NC(=O)[C@@H](NC(=O)[C@H](CC(C)C)NC(C)=O)[C@@H](C)O)C(=O)N[C@@H](CO)C(N)=O)CC2C(N)=O)cc1 (some centres not stated) (Ac-LTFK(Ac)RYWRQLK(X1)S-NH2)	inactive
Ac-LTFEHYWAQLTS-NH2	inactive
